Results published in article PMC11220827 (Frontiers in Pharmacology, 2024).
Entries after “also recorded” stand apart in the source; their conditions may differ.

Legend:
[1] = in vivo; cited from earlier work
[2] = target: T1, TRβ (Homo sapiens, UniProt P10828); assay: TRβ CALUX assay (thyroid)
T1 sequence (P10828 1-461): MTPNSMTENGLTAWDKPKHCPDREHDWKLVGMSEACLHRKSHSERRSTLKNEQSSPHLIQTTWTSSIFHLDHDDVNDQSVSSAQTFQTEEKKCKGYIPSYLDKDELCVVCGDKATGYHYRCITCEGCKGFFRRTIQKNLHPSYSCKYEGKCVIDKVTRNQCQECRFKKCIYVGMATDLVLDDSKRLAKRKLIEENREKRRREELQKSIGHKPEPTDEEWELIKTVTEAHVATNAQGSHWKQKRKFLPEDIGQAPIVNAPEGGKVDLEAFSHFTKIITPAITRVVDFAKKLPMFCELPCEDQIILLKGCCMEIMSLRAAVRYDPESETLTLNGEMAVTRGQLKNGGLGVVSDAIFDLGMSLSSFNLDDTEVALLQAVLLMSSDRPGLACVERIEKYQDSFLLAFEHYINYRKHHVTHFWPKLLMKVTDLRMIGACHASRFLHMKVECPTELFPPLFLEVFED
Experimental: using the U2-OS based CALUX cytotox bioassay. The cytotoxicity of each test chemical was assessed using the U2-OS based cytotoxicity CALUX bioassay. Concentrations causing >20% reduction of luminescence were considered cytotoxic.
cytotoxicity (relative induction in the cytotoxicity CALUX bioassay > 80%) were used for final
evaluation of analysis results.
induction in the cytotox CALUX bioassay > 80%) were used for final evaluation of analysis results.
All analysis results were expressed in molar (M) final in well.
For determination of the (anti-)ERα, (anti-)AR and (anti-)TRβ CALUX activities, CALUX cells were
seeded in assay medium. Following exposure of the CALUX cells to serial dilutions of the
compounds in triplicate for 24 h, the induction of luciferase production was quantified by measuring
luminescence following addition of the substrate luciferin. For antagonist assays, a fixed
concentration of assay agonist was present in each well, to generate a basal signal. On each plate, a
complete calibration curve for each respective bioassay was also analysed using the relevant reference
compounds. For the analyses in the presence of rat liver S9, 0.03% (v/v) of PB/BNF induced rat liver
S9 mix (including NADPH and an NADPH-regenerating system) was added to the cells directly after
addition of the compounds, which remained there for the duration of the exposure period (24 h) (van
Relative light units (RLUs) of the CALUX assays were analysed as follows. For agonist assays,
background values (exposure to DMSO only) were subtracted, and the maximum activity of the
assay’s reference compound was set to 100%. For antagonist assays, the basal signal (exposure to fixed concentration of agonist only) was set to 100%. Activity of the samples was scaled accordingly,
resulting in expression of the data as “percentage of maximum reference response”. Graphs were
generated using the statistical software package GraphPad Prism V5.03. Using these graphs, lowest
effect concentrations (LOECs) and PC50 concentrations were determined; LOEC is defined as the
maximum reference compound activity for agonist assays, and 20% of the maximum reference
compound activity for antagonist assays. The PC50 is defined as the concentration where the activity
of the sample equals 50% of the maximum activity of the assay’s reference compound.

| Compound | Highest measured plasma concentration [1] [µM] | TRß thyroid LOEC, +S9 ([2]; +S9 (rat liver)) [Log M] | TRβ Agonist/antagonist effect ([2]; CALUX) | TRß thyroid LOEC, −S9 ([2]; −S9) [Log M] |
| --- | --- | --- | --- | --- |
| O=c1c(-c2ccc(O)cc2)coc2cc(O)ccc12 [Daidzein, DAIDZEIN] | 3.14 | – | – | – |
| O=c1c(-c2ccc(O)cc2)coc2cc(O)cc(O)c12 [Genistein, 5,7-DIHYDROXY-3-(4-HYDROXYPHENYL)-4-BENZOPYRONE] | – | >−5 | did not activate or antagonize the thyroid receptor-β; also recorded: No effect | >−5 |
